7 compounds from patent US20110086759A1, “CHEMICAL COMPOUNDS” (SYNGENTA CROP PROTECTION, INC., priority 2007, published 2011) can be followed below.

Type in all cases: in vivo
The subject of test [1] is Alopecurus myosuroides (ALOMY). Kind of test: Pre-emergence biological efficacy, glasshouse pot test. Conditions: 312 h. In short, it runs like this:
(§1)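 Seeds sown in standard soil in pots, held one day in glasshouse (24/16 °C day/night, 14 h light, 65% humidity), then sprayed with aqueous solution from acetone/water (50:50) formulation with 0.5% Tween 20 at 1000 or 250 g/ha. Damage scored after 13 days (0 = none, 100 = total).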

In test [2] the test system is Amaranthus retoflexus (AMARE). The description is as above. Conditions: Amaranthus retroflexus, 312 h. In short, it runs like this: as §1
The subject of test [3] is Echinochloa crus-galli (ECHCG). The test is described as above. The note with it: 312 h. In short, it runs like this: as §1
The test system of test [4] is Ipomea hederaceae (IPOHE). The description is as above. Conditions: Ipomoea hederacea, 312 h. In a few lines: as §1
Test [5] relates to Setaria faberi (SETFA). The description is as above. Conditions: 312 h. In short, it runs like this:
as §1

Test [6] has as its system Solanum nigrum (SOLNI). Described as above. Conditions: 312 h. In short, it runs like this: as §1
The test system of test [7] is Alopecurus myosuroides (ALOMY). Briefly: Post-emergence biological efficacy, glasshouse pot test. The note with it: 312 h. In short, it runs like this: (§2)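 Plants were sown in standard soil and grown 8 days in a glasshouse (24/16° C. day/night, 14 hours light, 65% humidity), then sprayed post-emergence at 1000 or 250 g/ha from acetone/water (50:50) with 0.5% Tween 20. Damage was scored visually after 13 days (0 = none, 100 = total).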

Test [8] concerns Amaranthus retoflexus (AMARE). Described as above. The note with it: Amaranthus retroflexus, 312 h. In a few lines: as §2
In test [9] the test system is Echinochloa crus-galli (ECHCG). The description is as above. Conditions: 312 h. In a few lines: as §2
For test [10], the system named is Ipomea hederaceae (IPOHE). The description is as above. The note with it: Ipomoea hederacea, 312 h. In a few lines:
as §2

For test [11], the system named is Setaria faberi (SETFA). The description is as above. The note with it: 312 h. In a few lines: as §2
Test [12] deals with Solanum nigrum (SOLNI). Described as above. Conditions: 312 h. In short, it runs like this: as §2
Where [13] appears, read: pre-emergence, 1,000 g/ha, evaluated after 13 days (100=total damage; 0=no damage), read-out: Percentage damage ALOMY.
Setting [14] is: pre-emergence, 1,000 g/ha, evaluated after 13 days (100=total damage; 0=no damage), read-out: Percentage damage AMARE.
The mark [15] stands for this setting: pre-emergence, 1,000 g/ha, evaluated after 13 days (100=total damage; 0=no damage), read-out: Percentage damage ECHCG.
Where [16] appears, read: pre-emergence, 1,000 g/ha, evaluated after 13 days (100=total damage; 0=no damage), read-out: Percentage damage IPOHE.
Setting [17] is: pre-emergence, 1,000 g/ha, evaluated after 13 days (100=total damage; 0=no damage), read-out: Percentage damage SETFA.
Setting [18] is: pre-emergence, 1,000 g/ha, evaluated after 13 days (100=total damage; 0=no damage), read-out: Percentage damage SOLNI.
Where [19] appears, read: post-emergence, 1,000 g/ha, evaluated after 13 days (100=total damage; 0=no damage), read-out: Percentage damage caused to weed species, ALOMY.
[20] abbreviates: post-emergence, 1,000 g/ha, evaluated after 13 days (100=total damage; 0=no damage), read-out: Percentage damage caused to weed species, AMARE.
[21] abbreviates: post-emergence, 1,000 g/ha, evaluated after 13 days (100=total damage; 0=no damage), read-out: Percentage damage caused to weed species, ECHCG.
Setting [22] is: post-emergence, 1,000 g/ha, evaluated after 13 days (100=total damage; 0=no damage), read-out: Percentage damage caused to weed species, IPOHE.
Where [23] appears, read: post-emergence, 1,000 g/ha, evaluated after 13 days (100=total damage; 0=no damage), read-out: Percentage damage caused to weed species, SETFA.
Where [24] appears, read: post-emergence, 1,000 g/ha, evaluated after 13 days (100=total damage; 0=no damage), read-out: Percentage damage caused to weed species, SOLNI.
The mark [25] stands for this setting: pre-emergence, rate 1,000 g/ha, evaluated after 13 days (100=total damage to plant; 0=no damage), read-out: Percentage damage caused to weed species, ALOMY.
The mark [26] stands for this setting: pre-emergence, rate 1,000 g/ha, evaluated after 13 days (100=total damage to plant; 0=no damage), read-out: Percentage damage caused to weed species, AMARE.
The mark [27] stands for this setting: pre-emergence, rate 1,000 g/ha, evaluated after 13 days (100=total damage to plant; 0=no damage), read-out: Percentage damage caused to weed species, ECHCG.
[28] abbreviates: pre-emergence, rate 1,000 g/ha, evaluated after 13 days (100=total damage to plant; 0=no damage), read-out: Percentage damage caused to weed species, IPOHE.
Setting [29] is: pre-emergence, rate 1,000 g/ha, evaluated after 13 days (100=total damage to plant; 0=no damage), read-out: Percentage damage caused to weed species, SETFA.
[30] abbreviates: pre-emergence, rate 1,000 g/ha, evaluated after 13 days (100=total damage to plant; 0=no damage), read-out: Percentage damage caused to weed species, SOLNI.
Setting [31] is: Rate 1,000 g/ha, post-emergence spray, evaluated after 13 days (100=total damage to plant; 0=no damage to plant), read-out: Percentage damage caused to weed species, post-emergence, ALOMY.
[32] abbreviates: Rate 1,000 g/ha, post-emergence spray, evaluated after 13 days (100=total damage to plant; 0=no damage to plant), read-out: Percentage damage caused to weed species, post-emergence, AMARE.
The mark [33] stands for this setting: Rate 1,000 g/ha, post-emergence spray, evaluated after 13 days (100=total damage to plant; 0=no damage to plant), read-out: Percentage damage caused to weed species, post-emergence, ECHCG.
Setting [34] is: Rate 1,000 g/ha, post-emergence spray, evaluated after 13 days (100=total damage to plant; 0=no damage to plant), read-out: Percentage damage caused to weed species, post-emergence, IPOHE.
The mark [35] stands for this setting: Rate 1,000 g/ha, post-emergence spray, evaluated after 13 days (100=total damage to plant; 0=no damage to plant), read-out: Percentage damage caused to weed species, post-emergence, SETFA.
The mark [36] stands for this setting: Rate 1,000 g/ha, post-emergence spray, evaluated after 13 days (100=total damage to plant; 0=no damage to plant), read-out: Percentage damage caused to weed species, post-emergence, SOLNI.

`COC(=O)c1nc(C2CC2)nc(NC(c2ccccc2)c2ccc(Cl)cc2)c1Cl` (stereo not drawn) [Compound 4-278, 5-Chloro-4-[(4-chlorophenyl)-(phenyl)-methylamino]-2-cyclopropyl-6-methoxycarbonyl-pyrimidine]: the pest or weed control at 1000 g/ha in [1] (setting [13]) is 0%; in test [2] (setting [14]), 40%; in test [3] (setting [15]), 10%; in test [4] (setting [16]) it was 20%; with Setaria faberi (SETFA) [5] (setting [17]), 10%; in the test with Solanum nigrum (SOLNI) [6] (setting [18]), 10%. Besides, the pest or weed control at 1000 g/ha in [7] (setting [19]) turned out to be 10%; in test [8] (setting [20]) it was 90%; in [9] (setting [21]), 20%; in test [10] (setting [22]), 60%; in the test with Setaria faberi (SETFA) [11] (setting [23]), 40%; in the test with Solanum nigrum (SOLNI) [12] (setting [24]), 30%.
Regarding `COC(=O)c1nc(C2CC2)nc(NC(Cc2ccccc2)c2ccccc2)c1Cl` (stereo not drawn) [Compound 4-279, 5-Chloro-2-cyclopropyl-4-(1,2-diphenylethyl-amino)-6-methoxy-carbonylpyrimidine], the pest or weed control at 1000 g/ha in test [1] (setting [13]) was 10%; in test [2] (setting [14]) it was 20%; in test [3] (setting [15]), 0%; in test [4] (setting [16]) it was 60%; in the test on Setaria faberi (SETFA) [5] (setting [17]) it was 0%; in the test with Solanum nigrum (SOLNI) [6] (setting [18]), 70%. Further, the pest or weed control at 1000 g/ha in test [7] (setting [19]) came out at 10%; in [8] (setting [20]) it was 90%; in [9] (setting [21]) it was 0%; in test [10] (setting [22]), 60%; in the test with Setaria faberi (SETFA) [11] (setting [23]) it was 40%; with Solanum nigrum (SOLNI) [12] (setting [24]) it was 70%.
Regarding `COC(=O)c1nc(C2CC2)nc(NC(Cc2ccccc2)C(=O)OC)c1Cl` (stereo not drawn) [Compound 4-283, 5-Chloro-2-cyclopropyl-6-methoxycarbonyl-4-(1-methoxy-carbonyl-2-phenylethylamino)-pyrimidine], the pest or weed control at 1000 g/ha in test [1] (setting [13]) amounted to 40%; in [2] (setting [14]), 100%; in test [3] (setting [15]), 70%; in [4] (setting [16]) it was 100%; with Setaria faberi (SETFA) [5] (setting [17]), 80%; in the test on Solanum nigrum (SOLNI) [6] (setting [18]) it was 100%. Also, the pest or weed control at 1000 g/ha in test [7] (setting [19]) was 20%; in test [8] (setting [20]), 100%; in [9] (setting [21]) it was 60%; in test [10] (setting [22]) it was 70%; in the test on Setaria faberi (SETFA) [11] (setting [23]), 60%; with Solanum nigrum (SOLNI) [12] (setting [24]), 80%.
For the compound `COC(=O)c1nc(C2CC2)nc(NC(Cc2ccc(F)cc2)C(=O)OC)c1Cl` (stereo not drawn) [Compound 4-284, 5-Chloro-2-cyclopropyl-4-[2-(4-fluorophenyl)-1-methoxycarbonyl-ethylamino]-6-methoxycarbonyl-pyrimidine], the pest or weed control at 1000 g/ha was found to be 20% in test [1] (setting [13]); 100% in test [2] (setting [14]); 30% in [3] (setting [15]); 100% in [4] (setting [16]); 30% in the test on Setaria faberi (SETFA) [5] (setting [17]); 90% in the test on Solanum nigrum (SOLNI) [6] (setting [18]). Moreover, the pest or weed control at 1000 g/ha in test [7] (setting [19]) worked out at 30%; in test [8] (setting [20]), 100%; in [9] (setting [21]), 20%; in test [10] (setting [22]), 100%; with Setaria faberi (SETFA) [11] (setting [23]), 40%; in the test with Solanum nigrum (SOLNI) [12] (setting [24]) it was 80%.
Consider `COC(=O)c1nc(C2CC2)nc(NC(Cc2c[nH]c3ccccc23)C(=O)OC)c1Cl` (stereo not drawn) [Compound 4-290, 5-Chloro-2-cyclopropyl-4-(2-indol-3-yl-1-methoxycarbonyl-ethylamino)-6-methoxycarbonyl-pyrimidine], for which the pest or weed control at 1000 g/ha was 20% in test [1] (setting [13]); 80% in test [2] (setting [14]); 40% in test [3] (setting [15]); 90% in [4] (setting [16]); 30% with Setaria faberi (SETFA) [5] (setting [17]); 80% with Solanum nigrum (SOLNI) [6] (setting [18]). Besides, the pest or weed control at 1000 g/ha came out at 30% in test [7] (setting [19]); 100% in test [8] (setting [20]); 30% in test [9] (setting [21]); 70% in test [10] (setting [22]); 50% in the test with Setaria faberi (SETFA) [11] (setting [23]); 80% with Solanum nigrum (SOLNI) [12] (setting [24]).
Take `COC(=O)c1nc(C2CC2)nc(N(C)CC2OCCO2)c1Cl` [Compound 5-54, 5-Chloro-2-cyclopropyl-4-[N-(1,3-dioxolan-2-yl)methyl-N-methyl-amino]-6-methoxycarbonyl-pyrimidine]: the pest or weed control at 1000 g/ha in test [1] (setting [25]) came to 0%; in test [2] (setting [26]), 50%; in test [3] (setting [27]) it was 0%; in test [4] (setting [28]), 30%; in the test with Setaria faberi (SETFA) [5] (setting [29]), 0%; in the test with Solanum nigrum (SOLNI) [6] (setting [30]), 0%. Moreover, the pest or weed control at 1000 g/ha in [7] (setting [31]) turned out to be 0%; in [8] (setting [32]), 80%; in test [9] (setting [33]) it was 0%; in test [10] (setting [34]) it was 60%; in the test on Setaria faberi (SETFA) [11] (setting [35]) it was 30%; in the test with Solanum nigrum (SOLNI) [12] (setting [36]) it was 30%.
For `COC(=O)c1nc(C2CC2)nc(N(C)Cc2ccccc2Cl)c1Cl` [Compound 5-61, 5-Chloro-4-[N-(2-chlorophenyl-methyl)-N-methyl-amino]-2-cyclopropyl-6-methoxycarbonyl-pyrimidine], the pest or weed control at 1000 g/ha in [1] (setting [25]) stood at 30%; in [2] (setting [26]), 70%; in [3] (setting [27]), 40%; in [4] (setting [28]), 70%; in the test on Setaria faberi (SETFA) [5] (setting [29]) it was 40%; with Solanum nigrum (SOLNI) [6] (setting [30]), 20%. Also, the pest or weed control at 1000 g/ha stood at 20% in test [7] (setting [31]); 100% in test [8] (setting [32]); 80% in [9] (setting [33]); 90% in test [10] (setting [34]); 80% in the test on Setaria faberi (SETFA) [11] (setting [35]); 90% with Solanum nigrum (SOLNI) [12] (setting [36]).
